# Measurements taken from PubChem BioAssay AID1891 (Broad Institute, 2009).
# Active and inactive are the calls of the source. How the calls were made is not given here.
# Target: Luciferin 4-monooxygenase (Photinus pyralis) (UniProt P08659)
# Experiment: inhibition of purified Photinus pyralis luciferase – biochemical, luminescence, dose response (AID 1891)
# Conditions: purified firefly luciferase
row,Compound,IC50
1,Nc1ncnc2c1ncn2[C@@H]1O[C@H](CO)[C@@H](O)[C@H]1O,> 11.2 µM (inactive)
2,CCNC(=O)C1OC(n2cnc3c(N)ncnc32)C(O)C1O (centres undefined),> 11.2 µM (inactive)
3,Nc1ncnc2c1ncn2C1OC(CO)C(O)C1O (centres undefined),> 11.2 µM (inactive)
4,CCNC(=O)[C@H]1O[C@@H](n2cnc3c(N)ncnc32)[C@H](O)[C@@H]1O,> 11.2 µM (inactive)
